According to patent US10758534B2 (Vertex Pharmaceuticals Incorporated, priority 2014, dated 2020):

Target: T1, F508del (Homo sapiens, UniProt P13569, DEL508-508)
T1 construct: expressed in transfected cells
Test: Protocol 2: FRET membrane potential optical assay (VIPR), identification of correction compounds
Assay type: cell-based
Settings: F508del CFTR modulator activity; compounds of Table 1; read-out: EC30
Procedure, shortened: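 FRET read-out (CC2-DMPE donor, DiSBAC2(3) voltage-sensitive acceptor) of membrane depolarization on VIPR II. Corrector candidates incubated 16 hrs at 37° C. with NIH3T3 cells expressing F508del; temperature correction at 27° C. as positive control; stimulation by 10 μM forskolin, 20 μM genistein, chloride-free gluconate bath.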

T1 sequence (P13569 with tags, fused parts or gaps DEL508-508): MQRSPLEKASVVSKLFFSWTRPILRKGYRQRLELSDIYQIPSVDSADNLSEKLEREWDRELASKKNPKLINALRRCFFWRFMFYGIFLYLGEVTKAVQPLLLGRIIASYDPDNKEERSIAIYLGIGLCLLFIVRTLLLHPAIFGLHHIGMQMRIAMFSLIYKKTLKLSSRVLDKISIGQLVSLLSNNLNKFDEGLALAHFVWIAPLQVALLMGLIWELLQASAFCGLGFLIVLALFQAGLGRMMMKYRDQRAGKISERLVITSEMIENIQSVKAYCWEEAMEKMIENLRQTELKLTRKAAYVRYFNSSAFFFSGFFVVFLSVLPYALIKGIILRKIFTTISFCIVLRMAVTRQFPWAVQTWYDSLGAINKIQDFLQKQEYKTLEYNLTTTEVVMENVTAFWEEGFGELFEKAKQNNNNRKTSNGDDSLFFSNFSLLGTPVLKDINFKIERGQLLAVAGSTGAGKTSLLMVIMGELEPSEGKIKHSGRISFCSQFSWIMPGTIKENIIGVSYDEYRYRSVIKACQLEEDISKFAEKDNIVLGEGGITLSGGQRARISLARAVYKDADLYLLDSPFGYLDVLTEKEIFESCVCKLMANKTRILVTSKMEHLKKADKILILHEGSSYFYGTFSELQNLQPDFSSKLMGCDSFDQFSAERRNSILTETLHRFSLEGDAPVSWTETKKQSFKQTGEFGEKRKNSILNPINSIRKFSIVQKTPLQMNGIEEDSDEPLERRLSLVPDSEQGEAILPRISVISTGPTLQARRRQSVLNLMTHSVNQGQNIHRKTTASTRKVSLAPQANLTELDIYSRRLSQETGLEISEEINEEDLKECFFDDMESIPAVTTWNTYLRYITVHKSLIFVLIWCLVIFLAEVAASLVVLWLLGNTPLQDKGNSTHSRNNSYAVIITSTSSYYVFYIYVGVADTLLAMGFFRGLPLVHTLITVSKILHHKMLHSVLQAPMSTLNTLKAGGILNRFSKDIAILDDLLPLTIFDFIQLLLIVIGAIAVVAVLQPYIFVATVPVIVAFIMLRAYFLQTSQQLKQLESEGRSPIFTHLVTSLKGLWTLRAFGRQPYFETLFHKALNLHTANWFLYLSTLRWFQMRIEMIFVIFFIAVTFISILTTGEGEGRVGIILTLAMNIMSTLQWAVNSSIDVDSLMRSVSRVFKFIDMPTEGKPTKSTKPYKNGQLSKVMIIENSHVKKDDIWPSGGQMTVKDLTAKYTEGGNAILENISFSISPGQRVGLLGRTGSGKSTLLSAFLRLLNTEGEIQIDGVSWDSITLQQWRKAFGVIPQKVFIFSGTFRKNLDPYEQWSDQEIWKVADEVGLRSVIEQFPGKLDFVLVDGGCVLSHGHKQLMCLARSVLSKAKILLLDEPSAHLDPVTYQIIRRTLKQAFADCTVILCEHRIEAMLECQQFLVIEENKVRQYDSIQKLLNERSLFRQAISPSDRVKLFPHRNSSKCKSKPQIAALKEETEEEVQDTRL

EC30 [nM]	SMILES
< 3000	CCOC(=O)C1CCN(c2cccc(S(=O)(=O)NC(=O)c3cccnc3N3CC(C)CC3(C)C)n2)CC1 (stereo not drawn) [Compound 2488, ethyl 1-[6-[[2-(2,2,4-trimethylpyrrolidin-1-yl)pyridine-3-carbonyl]sulfamoyl]-2-pyridyl]piperidine-4-carboxylate]
3000 to 10000	C[C@@H]1CN(c2nc(-c3cc(F)ccc3F)ccc2C(=O)NS(=O)(=O)N2CC[C@H](N)C2)C(C)(C)C1 [Compound 2489, N-[(3S)-3-aminopyrrolidin-1-yl]sulfonyl-6-(2,5-difluorophenyl)-2-[(4S)-2,2,4-trimethylpyrrolidin-1-yl]pyridine-3-carboxamide]
< 3000	Cc1ccc(F)cc1-c1ccc(C(=O)NS(=O)(=O)N2CC[C@H](N)C2)c(N2C[C@@H](C)CC2(C)C)n1 [Compound 2490, N-[(3S)-3-aminopyrrolidin-1-yl]sulfonyl-6-(5-fluoro-2-methyl-phenyl)-2-[(4S)-2,2,4-trimethylpyrrolidin-1-yl]pyridine-3-carboxamide]
< 3000	Cc1c(F)cccc1-c1ccc(C(=O)NS(=O)(=O)c2ccc[nH]c2=O)c(N2C[C@@H](C)CC2(C)C)n1 [Compound 2491, 6-(3-fluoro-2-methyl-phenyl)-N-[(2-oxo-1H-pyridin-3-yl)sulfonyl]-2-[(4S)-2,2,4-trimethylpyrrolidin-1-yl]pyridine-3-carboxamide]
< 3000	COC(=O)c1cccc(Nc2cccc(S(=O)(=O)NC(=O)c3cccnc3N3CC(C)CC3(C)C)n2)c1 (stereo not drawn) [Compound 2493, methyl 3-[[6-[[2-(2,2,4-trimethylpyrrolidin-1-yl)pyridine-3-carbonyl]sulfamoyl]-2-pyridyl]amino]benzoate]
< 3000	COc1ccc(-c2ccc(C(=O)NS(=O)(=O)c3cccnc3N)c(N3C[C@@H](C)CC3(C)C)n2)c(C)c1 [Compound 2494, N-[(2-amino-3-pyridyl)sulfonyl]-6-(4-methoxy-2-methyl-phenyl)-2-[(4S)-2,2,4-trimethylpyrrolidin-1-yl]pyridine-3-carboxamide]
< 3000	CC1CN(c2ncccc2C(=O)NS(=O)(=O)c2cccc(NCCC(=O)OC(C)(C)C)n2)C(C)(C)C1 (stereo not drawn) [Compound 2495, tert-butyl 3-[[6-[[2-(2,2,4-trimethylpyrrolidin-1-yl)pyridine-3-carbonyl]sulfamoyl]-2-pyridyl]amino]propanoate]
< 3000	COc1c(F)cc(F)cc1-c1ccc(C(=O)NS(=O)(=O)c2ccc[nH]c2=O)c(N2C[C@@H](C)CC2(C)C)n1 [Compound 2496, 6-(3,5-difluoro-2-methoxy-phenyl)-N-[(2-oxo-1H-pyridin-3-yl)sulfonyl]-2-[(4S)-2,2,4-trimethylpyrrolidin-1-yl]pyridine-3-carboxamide]
< 3000	CCOCCOc1ncc(-c2ccc(C(=O)NS(=O)(=O)c3cccnc3N)c(N3C[C@@H](C)CC3(C)C)n2)cc1C [Compound 2497, N-[(2-amino-3-pyridyl)sulfonyl]-6-[6-(2-ethoxyethoxy)-5-methyl-3-pyridyl]-2-[(4S)-2,2,4-trimethylpyrrolidin-1-yl]pyridine-3-carboxamide]
< 3000	CC(C)c1cccc(-c2ccc(C(=O)NS(=O)(=O)c3ccc[nH]c3=O)c(N3C[C@@H](C)CC3(C)C)n2)c1 [Compound 2498, 6-(3-isopropylphenyl)-N-[(2-oxo-1H-pyridin-3-yl)sulfonyl]-2-[(4S)-2,2,4-trimethylpyrrolidin-1-yl]pyridine-3-carboxamide]
< 3000	COc1cc(C)cc(-c2cnc(N3CC(C)CC3(C)C)c(C(=O)NS(=O)(=O)c3cccc(N)n3)c2)c1 (stereo not drawn) [Compound 2499, N-[(6-amino-2-pyridyl)sulfonyl]-5-(3-methoxy-5-methyl-phenyl)-2-(2,2,4-trimethylpyrrolidin-1-yl)pyridine-3-carboxamide]
< 3000	C[C@@H]1CN(c2nc(-c3cccc(NCC(C)(C)C)n3)ccc2C(=O)NS(=O)(=O)c2cccnc2N)C(C)(C)C1 [Compound 2500, N-[(2-amino-3-pyridyl)sulfonyl]-6-[6-(2,2-dimethylpropylamino)-2-pyridyl]-2-[(4S)-2,2,4-trimethylpyrrolidin-1-yl]pyridine-3-carboxamide]
3000 to 10000	CC(Oc1ncccc1C(=O)NS(=O)(=O)c1cccc(N)n1)c1ccccc1C(F)(F)F (stereo not drawn) [Compound 2501]
< 3000	Cc1ccc(CCNc2cccc(S(=O)(=O)NC(=O)c3cccnc3N3CC(C)CC3(C)C)n2)cc1 (stereo not drawn) [Compound 2502, N—[[6-[2-(p-tolyl)ethylamino]-2-pyridyl]sulfonyl]-2-(2,2,4-trimethylpyrrolidin-1-yl)pyridine-3-carboxamide]
< 3000	COc1ccc(Cl)cc1Oc1cccc(S(=O)(=O)NC(=O)c2cccnc2N2CC(C)CC2(C)C)n1 (stereo not drawn) [Compound 2503, N—[[6-(5-chloro-2-methoxy-phenoxy)-2-pyridyl]sulfonyl]-2-(2,2,4-trimethylpyrrolidin-1-yl)pyridine-3-carboxamide]
3000 to 10000	CC1CN(c2ncccc2C(=O)NS(=O)(=O)c2cccc(N3CCN(Cc4ccccn4)CC3)n2)C(C)(C)C1 (stereo not drawn) [Compound 2504, N—[[6-[4-(2-pyridylmethyl)piperazin-1-yl]-2-pyridyl]sulfonyl]-2-(2,2,4-trimethylpyrrolidin-1-yl)pyridine-3-carboxamide]
< 3000	Cc1cc(F)cc(-c2ccc(C(=O)NS(=O)(=O)c3cccnc3N)c(N3C[C@@H](C)CC3(C)C)n2)c1 [Compound 2505, N-[(2-amino-3-pyridyl)sulfonyl]-6-(3-fluoro-5-methyl-phenyl)-2-[(4S)-2,2,4-trimethylpyrrolidin-1-yl]pyridine-3-carboxamide]
3000 to 10000	COC(=O)N1CCN(c2cccc(S(=O)(=O)NC(=O)c3cccnc3N3CC(C)CC3(C)C)n2)CC1 (stereo not drawn) [Compound 2506, methyl 4-[6-[[2-(2,2,4-trimethylpyrrolidin-1-yl)pyridine-3-carbonyl]sulfamoyl]-2-pyridyl]piperazine-1-carboxylate]
< 3000	CC1CN(c2ncccc2C(=O)NS(=O)(=O)c2cccc(OCc3ccoc3)n2)C(C)(C)C1 (stereo not drawn) [Compound 2507, N—[[6-(3-furylmethoxy)-2-pyridyl]sulfonyl]-2-(2,2,4-trimethylpyrrolidin-1-yl)pyridine-3-carboxamide]
< 3000	CC1CN(c2ncccc2C(=O)NS(=O)(=O)c2cccc(Oc3ccccc3)n2)C(C)(C)C1 (stereo not drawn) [Compound 2509, N-[(6-phenoxy-2-pyridyl)sulfonyl]-2-(2,2,4-trimethylpyrrolidin-1-yl)pyridine-3-carboxamide]
< 3000	CC1CN(c2ncc(C3=CCC(C(F)(F)F)CC3)cc2C(=O)NS(=O)(=O)c2cccc(N)n2)C(C)(C)C1 (stereo not drawn) [Compound 2510, N-[(6-amino-2-pyridyl)sulfonyl]-5-[4-(trifluoromethyl)cyclohexen-1-yl]-2-(2,2,4-trimethylpyrrolidin-1-yl)pyridine-3-carboxamide]
< 3000	CCOc1cc(C)cc(-c2ccc(C(=O)NS(=O)(=O)c3cccc(N)n3)c(Oc3c(C)cc(C)cc3C)n2)n1 [Compound 2511, N-[(6-amino-2-pyridyl)sulfonyl]-6-(6-ethoxy-4-methyl-2-pyridyl)-2-(2,4,6-trimethylphenoxy)pyridine-3-carboxamide]
< 3000	CCOc1cc(C)cc(-c2ccc(C(=O)NS(=O)(=O)c3ccc[nH]c3=O)c(N3C[C@@H](C)CC3(C)C)n2)c1 [Compound 2512, 6-(3-ethoxy-5-methyl-phenyl)-N-[(2-oxo-1H-pyridin-3-yl)sulfonyl]-2-[(4S)-2,2,4-trimethylpyrrolidin-1-yl]pyridine-3-carboxamide]
3000 to 10000	CC1CN(c2ncccc2C(=O)NS(=O)(=O)c2cccc(Nc3c(F)cccc3F)n2)C(C)(C)C1 (stereo not drawn) [Compound 2513, N—[[6-(2,6-difluoroanilino)-2-pyridyl]sulfonyl]-2-(2,2,4-trimethylpyrrolidin-1-yl)pyridine-3-carboxamide]
< 3000	C[C@@H]1CN(c2nc(-c3ccccc3OC(F)(F)F)ccc2C(=O)NS(=O)(=O)c2ccc[nH]c2=O)C(C)(C)C1 [Compound 2514, N-[(2-oxo-1H-pyridin-3-yl)sulfonyl]-6-[2-(trifluoromethoxy)phenyl]-2-[(4S)-2,2,4-trimethylpyrrolidin-1-yl]pyridine-3-carboxamide]
< 3000	CC(C)Oc1cccc(-c2ccc(C(=O)NS(=O)(=O)c3cccnc3N)c(N3C[C@@H](C)CC3(C)C)n2)c1 [Compound 2515, N-[(2-amino-3-pyridyl)sulfonyl]-6-(3-isopropoxyphenyl)-2-[(4S)-2,2,4-trimethylpyrrolidin-1-yl]pyridine-3-carboxamide]
3000 to 10000	C[C@@H]1CN(c2nc(-c3ccc4c(c3)OCCO4)ccc2C(=O)NS(=O)(=O)c2ccc[nH]c2=O)C(C)(C)C1 [Compound 2516, 6-(2,3-dihydro-1,4-benzodioxin-6-yl)-N-[(2-oxo-1H-pyridin-3-yl)sulfonyl]-2-[(4S)-2,2,4-trimethylpyrrolidin-1-yl]pyridine-3-carboxamide]
< 3000	CC1CN(c2ncccc2C(=O)NS(=O)(=O)c2cccc(Nc3cccc(N(C)C)c3)n2)C(C)(C)C1 (stereo not drawn) [Compound 2517, N—[[6-[3-(dimethylamino)anilino]-2-pyridyl]sulfonyl]-2-(2,2,4-trimethylpyrrolidin-1-yl)pyridine-3-carboxamide]
< 3000	CC1CN(c2ncccc2C(=O)NS(=O)(=O)c2cccc(N3CCc4ccc(F)cc4C3)n2)C(C)(C)C1 (stereo not drawn) [Compound 2518, N—[[6-(7-fluoro-3,4-dihydro-1H-isoquinolin-2-yl)-2-pyridyl]sulfonyl]-2-(2,2,4-trimethylpyrrolidin-1-yl)pyridine-3-carboxamide]

SMILES	EC30 [nM]
CC(C)COc1cc(F)cc(-c2ccc(C(=O)NS(=O)(=O)N3CC(O)CC(F)(F)C3)c(N3C[C@@H](C)CC3(C)C)n2)c1 (stereo partly drawn) [Compound 2508, N-[(3,3-difluoro-5-hydroxy-1-piperidyl)sulfonyl]-6-(3-fluoro-5-isobutoxy-phenyl)-2-[(4S)-2,2,4-trimethylpyrrolidin-1-yl]pyridine-3-carboxamide]	< 3000
